{"source": "patent US20110185440A1", "about": "“CISD2-Knockout Mice and Uses Thereof” (NATIONAL YANG-MING UNIVERSITY, priority 2006, published 2011)", "key": {"Cisd2 knockout mice [1]": {"tested_on": "Cisd2 knockout mice", "assay": "Body weight of Cisd2 knockout mice after oral resveratrol treatment", "format": "in vivo, mouse", "conditions": "30 mg/kg/day oral from 4- to 12-week old; effect after 8-week old; P<0.05 vs untreated control", "experimental": "(17A) Oral administration of resveratrol (30 mg/kg/day) to Cisd2 knockout mice from 4- to 12-week old. (17B) To analyze the body weight of the Cisd2 knockout mice after resveratrol treatment and compare to 4-week old wild-type mice. Values represent mean±s.d from at least three male samples. Asterisks indicate statistically significant differences compare with untreated control. (*, P<0.05) Resveratrol (30 mg/kg/day) was administered by oral to Cisd2 knockout mice from 4- to 12-week old. The body weight of the Cisd2 knockout mice was analyzed after resveratrol treatment and comparing to 4-week old wild-type mice (FIG. 17)."}, "Cisd2 knockout mice [2]": {"tested_on": "Cisd2 knockout mice", "assay": "Muscle and neuron degeneration in Cisd2 knockout mice after resveratrol treatment (H&E staining, TEM)", "format": "in vivo, mouse", "conditions": "30 mg/kg/day oral from 4- to 12-week old", "from_the_text": "(18A-F) H&E staining of transverse sections of skeletal muscle dissected from the 12-week old, male Cisd2 knockout mice with (18A) untreated control, (18B) resveratrol or (18C) H2O treatment, and (18D-F) relative wild-type control. Black arrowheads indicate degenerated transverse fibers. Blue arrows indicate angular fibres which are the evidences of muscle atrophy caused by neuron degeneration. (18G) The standard quantification score of muscle atrophy. (18H) The quantification of degenerative muscle fiberin under resveratrol treated or not. About 1000 muscle fibre in random fields of H&E staining slides were examined for each mouse. Values represent mean±s.d from at least three male samples. […] Myelin sheath degeneration (asterisks) was detected only in the Cisd2 knockout mice. […] (18U) The standard quantification score of axon and myelin sheath degeneration. (18V) The quantification of degenerative sciatic nerve in wild-type, Cisd2 knockout and Cisd2 knockout mice with resveratrol treatment, respectively. […] The standard quantification score of muscle atrophy was prepared. The quantification of degenerative muscle fiberin was measured under resveratrol treated or not. […] Myelin sheath degeneration was detected only in the Cisd2 knockout mice. The standard quantification score of axon and myelin sheath degeneration was created. […]"}}}
{"smiles": "Oc1ccc(C=Cc2cc(O)cc(O)c2)cc1", "note": "[Resveratrol]", "values": [{"measurement": "body weight of Cisd2 knockout mice", "setting": "Cisd2 knockout mice [1]", "result": "significant reverse"}, {"measurement": "muscle degeneration of the Cisd2 knockout mice", "setting": "Cisd2 knockout mice [2]; 12-week old male mice, skeletal muscle H&E, skeletal and cardiac muscle ultrastructure", "result": "partial rescue"}, {"measurement": "neuron degeneration of the Cisd2 knockout mice", "setting": "Cisd2 knockout mice [2]; 12-week old mice, sciatic nerve TEM, axon and myelin sheath degeneration", "result": "partial rescue"}]}
